Laboratory results taken from PubChem BioAssay AID679 (PCMD, 2007).
The source made the active and inactive calls. No rule for the calls is given here.

Molecular target: Coagulation factor XI (Homo sapiens) (UniProt P03951)
Test: human FXIa inhibitor potency, dose response, biochemical (AID 679)
Conditions: purified human factor XIa enzymatic activity assay

Sequence of Coagulation factor XI (Homo sapiens) (P03951 19-387 limits assumed): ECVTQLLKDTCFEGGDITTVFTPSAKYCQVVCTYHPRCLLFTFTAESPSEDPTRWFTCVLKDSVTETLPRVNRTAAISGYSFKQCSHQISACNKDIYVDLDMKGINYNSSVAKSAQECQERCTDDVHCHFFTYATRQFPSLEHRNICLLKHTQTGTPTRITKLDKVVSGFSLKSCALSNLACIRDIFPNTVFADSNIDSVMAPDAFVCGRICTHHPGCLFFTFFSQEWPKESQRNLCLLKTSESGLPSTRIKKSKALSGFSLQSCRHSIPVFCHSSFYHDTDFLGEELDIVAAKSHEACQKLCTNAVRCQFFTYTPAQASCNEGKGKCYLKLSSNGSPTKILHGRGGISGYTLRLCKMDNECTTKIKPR
Sequence of Coagulation factor XI (Homo sapiens) (P03951 388-625 limits assumed): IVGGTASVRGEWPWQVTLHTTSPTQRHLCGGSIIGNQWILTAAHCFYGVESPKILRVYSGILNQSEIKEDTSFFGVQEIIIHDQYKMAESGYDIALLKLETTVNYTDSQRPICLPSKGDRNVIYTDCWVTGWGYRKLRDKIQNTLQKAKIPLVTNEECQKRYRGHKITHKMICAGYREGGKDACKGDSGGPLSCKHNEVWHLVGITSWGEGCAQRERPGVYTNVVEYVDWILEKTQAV

IC50	SMILES
> 50 µM (inactive)	COC(=O)c1ccc(NC(=O)CC2C(=O)N(c3ccc(C)cc3)C(=O)N2CC(C)C)cc1 (stereo not drawn)
> 50 µM (inactive)	CC1=C(C(=O)OC(C)C)C(c2coc3ccccc3c2=O)C2=C(CCCC2=O)N1 (stereo not drawn)
> 50 µM (inactive)	N#Cc1c(N)nc2c3c(sc(=N)c2c1N)NC(=O)CC3c1ccccc1Cl (stereo not drawn)
